From US12048677B2, “Compositions and uses thereof for the treatment of heart failure in domestic animals” (CEVA SANTE ANIMALE, priority 2014, dated 2024)

Columns and labels:
healthy dogs = assay: PK/PD studies of diuretic effect (urinary volume) after one-day and fourteen-day oral administration; format: in vivo; details: for Urinary volume on day 1 / Urinary volume on day 14: healthy dogs
Method: Two pharmacokinetics studies (PK/PD) in healthy dogs have been performed to investigate and model the pharmacodynamic effects of torasemide, furosemide and placebo after a one-day and fourteen-day oral administration of furosemide at the following doses: 1 and 4 mg/kg/12 hours, and of torasemide at the following doses: 0.2, 0.25, 0.30 and 0.50 mg/kg/day. • 1 and 4 mg/kg furosemide have been administered to five dogs on the basis of repeated oral administration twice daily for 14 days (corresponding to 2 and 8 mg/kg/day). • 0 (placebo), 0.2, 0.25, 0.30 and 0.50 mg/kg torasemide have been administered to five dogs on the basis of repeated oral administration daily for 14 days.

[1] = test system: dog model having no clinical signs of heart failure; details: 0.2 mg/kg/day torasemide versus 2 mg/kg/day furosemide, seven days; cited from earlier work
[2] = test system: dogs that had become resistant to furosemide; details: torasemide dose ten times lower (1/10) than reference furosemide dose; cited from earlier work
[3] = furosemide 2 mg/kg/day (1 mg/kg/12 hours) oral
[4] = furosemide 8 mg/kg/day (4 mg/kg/12 hours) oral
[5] = torasemide 0.20 mg/kg/day oral once daily
[6] = torasemide 0.25 mg/kg/day oral once daily
[7] = torasemide 0.30 mg/kg/day oral once daily
[8] = torasemide 0.5 mg/kg/day oral once daily

Row | Compound | Urinary volume on day 1 (healthy dogs; [3]) [mL] | Urinary volume on day 14 (healthy dogs; [3]) [mL] | Urinary volume on day 1 (healthy dogs; [4]) [mL] | Urinary volume on day 14 (healthy dogs; [4]) [mL] | Urinary volume compared with test control (placebo) (healthy dogs; 0.20 to 0.50 mg/kg/day of torasemide, day 1 and day 14) [mL] | Urinary volume on day 1 (healthy dogs; [5]) [mL] | Urinary volume on day 14 (healthy dogs; [5]) [mL] | Urinary volume on day 1 (healthy dogs; [6]) [mL] | Urinary volume on day 14 (healthy dogs; [6]) [mL] | Urinary volume on day 1 (healthy dogs; [7]) [mL] | Urinary volume on day 14 (healthy dogs; [7]) [mL] | Urinary volume on day 1 (healthy dogs; [8]) [mL] | Urinary volume on day 14 (healthy dogs; [8]) [mL] | Diuretic potency compared with furosemide [1] | Duration of diuretic effect compared with furosemide [1] | Diuretic potency compared with reference dose of furosemide [2]
1 | NS(=O)(=O)c1cc(C(=O)O)c(NCc2ccco2)cc1Cl [Furosemide, furosemide] | 374 | 532 | 620 | 1033 |  |  |  |  |  |  |  |  |  |  |  | 
2 | Cc1cccc(Nc2ccncc2S(=O)(=O)NC(=O)NC(C)C)c1 [Torasemide, N-[(isopropylamino)carbonyl]-4-[(3-methylphenyl)amino] pyridine-3-sulfonamide] |  |  |  |  | > 220 | 455 | 561 | 500 | 696 | 659 | 816 | 700 | 1100 | as potent as furosemide | longer diuretic effect | as potent in producing a diuretic effect
